Like-named read-outs stand apart in the source and are kept apart here.
Legend:
FLT3 = target: T1, FLT3 (Homo sapiens, UniProt P36888); assay: RBC HotSpot Kinase Assay, FLT3; format: biochemical; parameters: purchased Reaction Biology (RBC HotSpot); conditions: isolated kinase enzyme, 33P-ATP, P81 filter-binding
T1 sequence (P36888 27-993): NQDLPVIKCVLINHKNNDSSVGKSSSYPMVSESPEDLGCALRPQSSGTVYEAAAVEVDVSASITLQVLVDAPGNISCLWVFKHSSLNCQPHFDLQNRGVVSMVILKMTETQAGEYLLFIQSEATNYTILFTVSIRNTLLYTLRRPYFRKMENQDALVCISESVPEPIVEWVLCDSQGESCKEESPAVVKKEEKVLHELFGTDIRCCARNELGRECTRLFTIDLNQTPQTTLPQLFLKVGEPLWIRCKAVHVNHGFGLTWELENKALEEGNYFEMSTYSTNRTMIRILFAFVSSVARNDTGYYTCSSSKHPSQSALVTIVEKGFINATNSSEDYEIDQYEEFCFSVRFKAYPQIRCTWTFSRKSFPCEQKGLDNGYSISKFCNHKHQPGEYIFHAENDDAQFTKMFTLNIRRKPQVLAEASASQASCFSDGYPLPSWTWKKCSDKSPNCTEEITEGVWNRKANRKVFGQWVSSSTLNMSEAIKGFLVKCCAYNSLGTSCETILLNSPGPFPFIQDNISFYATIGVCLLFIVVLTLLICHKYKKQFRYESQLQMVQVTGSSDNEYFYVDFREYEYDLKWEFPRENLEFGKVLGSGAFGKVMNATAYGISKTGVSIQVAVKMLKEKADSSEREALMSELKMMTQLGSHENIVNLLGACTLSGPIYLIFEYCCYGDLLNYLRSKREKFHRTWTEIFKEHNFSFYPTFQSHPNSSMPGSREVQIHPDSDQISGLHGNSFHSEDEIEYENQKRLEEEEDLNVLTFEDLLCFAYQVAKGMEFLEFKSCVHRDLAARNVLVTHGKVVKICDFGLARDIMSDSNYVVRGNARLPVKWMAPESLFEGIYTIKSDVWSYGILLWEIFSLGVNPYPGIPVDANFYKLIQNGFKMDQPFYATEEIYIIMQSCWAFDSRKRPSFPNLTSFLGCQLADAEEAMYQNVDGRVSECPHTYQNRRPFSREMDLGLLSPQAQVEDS
In short: (§1)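 Reactions ran in 20 mM Hepes (pH 7.5) containing 10 mM MgCl2, 1 mM EGTA, 0.1 mM Na3VO4, 2 mM DTT, 0.02 mg/ml BSA, 0.01% Brij35 and 1% DMSO, plus required cofactors. Functional activity readout on the expressible enzyme form, sometimes C-terminally truncated or lacking receptor regulatory regions.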

MOLM14 D835Y cells = assay: MOLM14 D835Y cell viability assay (Cell Titer Glo); format: cell-based; conditions: cell viability, Cell Titer Glo, 48 hours, read-out: MOLM14 D835Y IC50
In short: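 Luminescent ATP read-out (CellTiter-Glo, 15 min room temperature) taken 48 h after compound addition. Cells were MOLM14 carrying FLT3 D835Y or F691L mutations, plated at 1000 cells per well.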

IRAK1 = target: T2, IRAK1 (Homo sapiens, UniProt P51617); assay: RBC HotSpot Kinase Assay, IRAK1; format: biochemical; conditions: isolated kinase enzyme, 33P-ATP, P81 filter-binding
T2 construct: purchased Reaction Biology (RBC HotSpot)
T2 sequence (P51617 whole entry): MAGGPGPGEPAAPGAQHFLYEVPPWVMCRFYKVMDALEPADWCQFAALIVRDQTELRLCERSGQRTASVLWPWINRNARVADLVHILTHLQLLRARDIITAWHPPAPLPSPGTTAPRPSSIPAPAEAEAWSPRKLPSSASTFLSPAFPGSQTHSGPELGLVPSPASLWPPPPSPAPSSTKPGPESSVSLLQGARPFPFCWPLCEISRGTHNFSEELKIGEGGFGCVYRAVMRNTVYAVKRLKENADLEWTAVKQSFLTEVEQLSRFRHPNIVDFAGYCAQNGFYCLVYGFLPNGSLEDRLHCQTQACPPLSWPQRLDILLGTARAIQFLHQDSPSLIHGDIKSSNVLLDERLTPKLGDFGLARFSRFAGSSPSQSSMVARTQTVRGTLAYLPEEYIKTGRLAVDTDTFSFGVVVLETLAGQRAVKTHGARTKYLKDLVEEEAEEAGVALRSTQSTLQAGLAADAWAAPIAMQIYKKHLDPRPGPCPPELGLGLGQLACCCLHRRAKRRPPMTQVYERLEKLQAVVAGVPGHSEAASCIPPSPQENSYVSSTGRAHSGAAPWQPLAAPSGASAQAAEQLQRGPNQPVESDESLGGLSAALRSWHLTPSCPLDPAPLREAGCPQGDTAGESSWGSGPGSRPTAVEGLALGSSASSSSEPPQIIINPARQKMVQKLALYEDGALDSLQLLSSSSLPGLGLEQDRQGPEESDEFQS
In short: as §1

Compound	IC50 (FLT3)	IC50 (MOLM14 D835Y cells)	IC50 (IRAK1)	IC50 (MOLM14 D835Y cells; Homo sapiens, MOLM-14, 48 h)
CC(O)(c1ccc2ncc(-c3ccnc(N[C@@H]4CCCNC4)n3)n2c1)C(F)(F)F (single isomer, unassigned) [Compound 22a]	0.0006 µM	0.036 µM	0.019 µM	
CC(O)(c1ccc2ncc(-c3ccnc(N[C@@H]4CCCNC4)n3)n2c1)C(F)(F)F (single isomer, unassigned) [Compound 23a]	< 0.0005 µM	0.016 µM	0.003 µM	
CC(O)(c1ccc2ncc(-c3ccnc(N[C@H]4CNCC[C@@H]4F)n3)n2c1)C(F)(F)F (single isomer, unassigned) [Compound 25a]	< 0.0005 µM		0.017 µM	0.036 µM
CC(O)(c1ccc2ncc(-c3cncc(N[C@@H]4CCCNC4)n3)n2c1)C(F)(F)F (single isomer, unassigned) [Compound 28a]	0.002 µM		0.033 µM	0.204 µM
CC(O)(c1ccc2ncc(-c3cncc(N[C@H]4CNCC[C@@H]4F)n3)n2c1)C(F)(F)F (single isomer, unassigned) [Compound 31a]	0.001 µM	0.162 µM	0.017 µM	
COc1cc2ncc(-c3nc(N[C@H]4CNCC[C@@H]4F)ncc3F)n2nc1C1CC1 [Compound 1a, 4-(6-cyclopropyl-7-methoxyimidazo[1,2-b]pyridazin-3-yl)-5-fluoro-N-((3S,4S)-4-fluoropiperidin-3-yl)pyrimidin-2-amine]	0.0005 µM		0.001 µM	0.001 µM
FC(F)COc1cc2ncc(-c3ccnc(N[C@H]4CNCC[C@@H]4F)n3)n2nc1C1CC1 [Compound 4a, 4-(6-cyclopropyl-7-(2,2-difluoroethoxy)imidazo[1,2-b]pyridazin-3-yl)-N-((3 S,4S)-4-fluoropiperidin-3-yl)pyrimidin-2-amine]	< 0.0005 µM		0.031 µM	0.009 µM
F[C@H]1CCNC[C@@H]1Nc1nccc(-c2cnc3cc(OC4CC4)c(C4CC4)nn23)n1 [Compound 12a, 4-(7-cyclopropoxy-6-cyclopropylimidazo[1,2-b]pyridazin-3-yl)-N-((3S,4S)-4-fluoropiperidin-3-yl)pyrimidin-2-amine]	< 0.0005 µM		0.018 µM	0.023 µM
COc1cc2ncc(-c3nc(N[C@H]4CNCC[C@@H]4F)ncc3F)n2nc1C(C)(C)O [Compound 45a, 2-(3-(5-fluoro-2-(((3S,4S)-4-fluoropiperidin-3-yl)amino)pyrimidin-4-yl)-7-methoxyimidazo[1,2-b]pyridazin-6-yl)propan-2-ol]	< 0.0005 µM		0.018 µM	0.015 µM
CC(C)(O)c1ccc2ncc(-c3nc(N[C@H]4CNCC[C@@H]4F)ncc3F)n2c1 [Compound 46a, 2-(3-(5-fluoro-2-(((3S,4S)-4-fluoropiperidin-3-yl)amino)pyrimidin-4-yl)imidazo[1,2-a]pyridin-6-yl)propan-2-ol]	< 0.0007 µM		0.006 µM	0.033 µM
CC(C)(O)c1ccc2ncc(-c3nc(N[C@@H]4CCCNC4)ncc3F)n2c1 [Compound 48a, (R)-2-(3-(5-fluoro-2-(piperidin-3-ylamino)pyrimidin-4-yl)imidazo[1,2-a]pyridin-6-yl)propan-2-ol]	0.001 µM		0.01 µM	0.036 µM
COc1cc2ncc(-c3nc(N[C@H]4CNCC[C@@H]4F)ncc3F)n2nc1C1CC(F)(F)C1 [Compound 49a, 4-(6-(3,3-difluorocyclobutyl)-7-methoxyimidazo[1,2-b]pyridazin-3-yl)-5-fluoro-N-((3S,4S)-4-fluoropiperidin-3-yl)pyrimidin-2-amine]	< 0.0005 µM		0.002 µM	0.015 µM
COc1cc2ncc(-c3nc(N[C@@H]4CCCNC4)ncc3F)n2nc1C1CC2(CCC2)C1 [Compound 59a, (R)-5-fluoro-4-(7-methoxy-6-(spiro[3.3]heptan-2-yl)imidazo[1,2-b]pyridazin-3-yl)-N-(piperidin-3-yl)pyrimidin-2-amine]	< 0.0005 µM		0.0007 µM	0.007 µM
COc1cc2ncc(-c3nc(N[C@H]4CNCC[C@@H]4F)ncc3F)n2nc1C1CC2(CCC2)C1 [Compound 60a, 5-fluoro-N-((3S,4S)-4-fluoropiperidin-3-yl)-4-(7-methoxy-6-(spiro[3.3]heptan-2-yl)imidazo[1,2-b]pyridazin-3-yl)pyrimidin-2-amine]	< 0.0005 µM		0.004 µM	0.011 µM
COc1cc2ncc(-c3ccnc(N[C@H]4CNCC[C@@H]4F)n3)n2nc1C1CCC1 [Compound 79a, 4-(6-cyclobutyl-7-methoxyimidazo[1,2-b]pyridazin-3-yl)-N-((3S,4S)-4-fluoropiperidin-3-yl)pyrimidin-2-amine]	< 0.0005 µM		0.033 µM	0.02 µM
COc1cc2ncc(-c3nc(N[C@H]4CNCC[C@@H]4F)ncc3F)n2nc1C1COC1 [Compound 92a, 5-fluoro-N-((3S,4S)-4-fluoropiperidin-3-yl)-4-(7-methoxy-6-(oxetan-3-yl)imidazo[1,2-b]pyridazin-3-yl)pyrimidin-2-amine]	< 0.0005 µM		0.004 µM	0.005 µM
CC(C)(O)c1cn2c(-c3nc(N[C@H]4CNCC[C@@H]4F)ncc3F)cnc2cn1 [Compound 100a, 2-(3-(5-fluoro-2-(((3S,4S)-4-fluoropiperidin-3-yl)amino)pyrimidin-4-yl)imidazo[1,2-a]pyrazin-6-yl)propan-2-ol]	0.001 µM		0.024 µM	0.09 µM
COc1cc2ncc(-c3nc(N[C@H]4CNC[C@@H]4F)ncc3F)n2nc1N1CCCS1(=O)=O [Compound 111a, 2-(3-(5-fluoro-2-(((3S,4S)-4-fluoropyrrolidin-3-yl)amino)pyrimidin-4-yl)-7-methoxyimidazo[1,2-b]pyridazin-6-yl)isothiazolidine 1,1-dioxide]	< 0.0005 µM		0.04 µM	0.013 µM
COc1cc2ncc(-c3nc(N[C@H]4CNCC[C@@H]4F)ncc3F)n2nc1N1CCCS1(=O)=O [Compound 112a, 2-(3-(5-fluoro-2-(((3S,4S)-4-fluoropiperidin-3-yl)amino)pyrimidin-4-yl)-7-methoxyimidazo[1,2-b]pyridazin-6-yl)isothiazolidine 1,1-dioxide]	< 0.0005 µM		0.019 µM	0.003 µM

— US20260226048A1, “MULTI-CYCLIC IRAK AND FLT3 INHIBITING COMPOUNDS AND USES THEREOF” (CHILDREN'S HOSPITAL MEDICAL CENTER, priority 2023, published 2026)
